The assay concerns 126254-015-R-J1-PDC complex spheroid growth, % test/control. As to the kind of experiment: Anticancer human tumor 126254-015-R-J1-PDC patient-derived soft tissue sarcoma cell line growth inhibition [Asc]. To be noted: for viability, T/C: stronger effect = lower value. In a few lines:
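Concentration series start at each agent's clinical Cmax, or at 10 microM when none is established, and drop in half-log steps; agents are applied alone or together to complex spheroids built with HUVEC and hMSC.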

The mark [1] stands for this setting: curve of first compound, second compound 0.1 µM.
The mark [2] stands for this setting: curve of first compound, second compound 0.316 µM.
Where [3] appears, read: curve of first compound, second compound 1 µM.
[4] abbreviates: curve of first compound, second compound 3.16 µM.
Where [5] appears, read: curve of first compound, second compound 10 µM.
Setting [6] is: second compound 0.1 µM, first compound 0.0316 µM.
Setting [7] is: second compound 0.1 µM, first compound 0.1 µM.
The mark [8] stands for this setting: second compound 0.1 µM, first compound 0.316 µM.
Where [9] appears, read: second compound 0.1 µM, first compound 1 µM.
The mark [10] stands for this setting: second compound 0.316 µM, first compound 0.0316 µM.
Setting [11] is: second compound 0.316 µM, first compound 0.1 µM.
The mark [12] stands for this setting: second compound 0.316 µM, first compound 0.316 µM.
The mark [13] stands for this setting: second compound 0.316 µM, first compound 1 µM.
The mark [14] stands for this setting: second compound 1 µM, first compound 0.0316 µM.
The mark [15] stands for this setting: second compound 1 µM, first compound 0.1 µM.
[16] abbreviates: second compound 1 µM, first compound 0.316 µM.
Where [17] appears, read: second compound 1 µM, first compound 1 µM.
Where [18] appears, read: second compound 3.16 µM, first compound 0.0316 µM.
[19] abbreviates: second compound 3.16 µM, first compound 0.1 µM.
[20] abbreviates: second compound 3.16 µM, first compound 0.316 µM.
Where [21] appears, read: second compound 3.16 µM, first compound 1 µM.
Where [22] appears, read: second compound 10 µM, first compound 0.0316 µM.
[23] abbreviates: second compound 10 µM, first compound 0.1 µM.
Setting [24] is: second compound 10 µM, first compound 0.316 µM.
Setting [25] is: second compound 10 µM, first compound 1 µM.
Where [26] appears, read: second compound 0.1 µM, first compound 3.16 µM.
Where [27] appears, read: second compound 0.1 µM, first compound 10 µM.
[28] abbreviates: second compound 0.316 µM, first compound 3.16 µM.
[29] abbreviates: second compound 0.316 µM, first compound 10 µM.
[30] abbreviates: second compound 1 µM, first compound 3.16 µM.
Where [31] appears, read: second compound 1 µM, first compound 10 µM.

Molecules are shown by their SMILES. Where “and” joins values, the source holds several entries; their conditions need not be identical. Identical values can stand only once.
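Also: spheroids exposed to compound for seven days.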
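For viability, T/C in this document: 100% = DMSO vehicle control wells.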

In the case of `CNC(C)C(=O)NC1CN(S(=O)(=O)c2cccc(S(=O)(=O)N3CCC4CCC(C(=O)NC(c5ccccc5)c5ccccc5)N4C(=O)C(NC(=O)C(C)NC)C3)c2)CCC2CCC(C(=O)NC(c3ccccc3)c3ccccc3)N2C1=O` (stereo not given) + Cc1c(S(C)(=O)=O)c(-c2cc(F)cc(N3CCN(c4ccc(NS(=O)(=O)c5ccc(NC(CCN6CCC(C(=O)OCCCP(=O)(O)O)CC6)CSc6ccccc6)c(S(=O)(=O)C(F)(F)F)c5)cc4)CC3)c2)c(-c2ccc(Cl)cc2)n1C(C)C, the IC50 (in general, the concentration needed to halve the response being measured) runs as follows: under setting [1], more than 1000 nM; under setting [2], 90.5 nM; under setting [3], 107 nM; under setting [4], 74.8 nM; under setting [5], 59.8 nM. Also, the viability, T/C (commonly the ratio of treated to control) runs as follows: (second compound 0.1 µM, first compound 0.00316 µM) 83%; (second compound 0.1 µM, first compound 0.01 µM) 84.8%; under setting [6], 67.3%; under setting [7], 55.6%; under setting [8], 56.2%; under setting [9], 45%. For the same compound, the viability, T/C (second compound 0.316 µM, first compound 0.00316 µM) was 85.8%; the viability, T/C (second compound 0.316 µM, first compound 0.01 µM) was 81.9%; the viability, T/C under setting [10] is 63.1%; the viability, T/C under setting [11] is 47.3%; the viability, T/C under setting [12] is 49.7%; the viability, T/C under setting [13] is 36.5%. For the same compound, the viability, T/C by setting is: (second compound 1 µM, first compound 0.00316 µM) 87.5%; (second compound 1 µM, first compound 0.01 µM) 81.5%; under setting [14], 66.9%; under setting [15], 47.9%; under setting [16], 46.9%; under setting [17], 36.3%. The viability, T/C (second compound 3.16 µM, first compound 0.00316 µM) was 90.7%; the viability, T/C (second compound 3.16 µM, first compound 0.01 µM) was 79%; the viability, T/C under setting [18] was 60.7%; the viability, T/C under setting [19] is 46.1%; the viability, T/C under setting [20] was 38.1%; the viability, T/C under setting [21] was 32.6%. Further, the viability, T/C by setting is: (second compound 10 µM, first compound 0.00316 µM) 80.2%; (second compound 10 µM, first compound 0.01 µM) 78.6%; under setting [22], 64.3%; under setting [23], 38.2%; under setting [24], 30.6%; under setting [25], 27.8%.
For the compound `C#Cc1c(F)ccc2cc(O)cc(-c3ncc4c(N5CC6CCC(C5)N6)nc(OCC56CCCN5CC(F)C6)nc4c3F)c12` (stereo not given) + Cc1c(S(C)(=O)=O)c(-c2cc(F)cc(N3CCN(c4ccc(NS(=O)(=O)c5ccc(NC(CCN6CCC(C(=O)OCCCP(=O)(O)O)CC6)CSc6ccccc6)c(S(=O)(=O)C(F)(F)F)c5)cc4)CC3)c2)c(-c2ccc(Cl)cc2)n1C(C)C, the IC50 runs as follows: under setting [1], more than 10000 nM; under setting [2], more than 10000 nM; under setting [3], 6580 nM; under setting [4], 7170 nM; under setting [5], 9190 nM. Also, the viability, T/C was 85.4% under setting [6]; 92.8% under setting [7]; 90.4% under setting [8]; 80.9% under setting [9]; 72.4% under setting [26]; 59.9% under setting [27]. Also, the viability, T/C runs as follows: under setting [10], 88.5%; under setting [11], 86%; under setting [12], 80.9%; under setting [13], 79.2%; under setting [28], 72.4%; under setting [29], 54.5%. Moreover, the viability, T/C reads like this: under setting [14], 84%; under setting [15], 92.2%; under setting [16], 73.8%; under setting [17], 81.9%; under setting [30], 72.3%; under setting [31], 37.4%. Also, the viability, T/C is 82.6% under setting [18]; 90.8% under setting [19]; 83.4% under setting [20]; 79.5% under setting [21]; 65.8% (second compound 3.16 µM, first compound 3.16 µM); 43.6% (second compound 3.16 µM, first compound 10 µM). Further, the viability, T/C runs as follows: under setting [22], 87.1%; under setting [23], 88.4%; under setting [24], 81.2%; under setting [25], 75.5%; (second compound 10 µM, first compound 3.16 µM) 75%; (second compound 10 µM, first compound 10 µM) 47.8%.
As to `Cn1ncnc1[C@H]1c2n[nH]c(=O)c3cc(F)cc(c23)N[C@@H]1c1ccc(F)cc1`, the viability, T/C runs as follows: (compound 0.000316 µM) 93.2% and 98% and 104%; (compound 0.001 µM) 95.6% and 106% and 103%; (compound 0.00316 µM) 90.9% and 91% and 86.1%; (compound 0.01 µM) 80.1% and 88.7% and 90.3%; (compound 0.0316 µM) 91.6% and 90% and 79.6%; (compound 0.1 µM) 80.9% and 89.7% and 70.5%. In addition, the IC50 (curve of compound) is more than 100 nM.
As to `C#Cc1c(F)ccc2cc(O)cc(-c3ncc4c(N5CC6CCC(C5)N6)nc(OCC56CCCN5CC(F)C6)nc4c3F)c12` (stereo not given) + CNC(C)C(=O)NC1CN(S(=O)(=O)c2cccc(S(=O)(=O)N3CCC4CCC(C(=O)NC(c5ccccc5)c5ccccc5)N4C(=O)C(NC(=O)C(C)NC)C3)c2)CCC2CCC(C(=O)NC(c3ccccc3)c3ccccc3)N2C1=O, the IC50 (curve of first compound, second compound 0.01 µM) is more than 10000 nM; the IC50 (curve of first compound, second compound 0.0316 µM) was 7580 nM; the IC50 under setting [1] was 3970 nM; the IC50 under setting [2] was 8980 nM; the IC50 under setting [3] was found to be 895 nM. The viability, T/C by setting is: (second compound 0.01 µM, first compound 0.0316 µM) 77.7%; (second compound 0.01 µM, first compound 0.1 µM) 81.8%; (second compound 0.01 µM, first compound 0.316 µM) 78.5%; (second compound 0.01 µM, first compound 1 µM) 73%; (second compound 0.01 µM, first compound 3.16 µM) 81.7%; (second compound 0.01 µM, first compound 10 µM) 63.7%. Moreover, the viability, T/C was 69.6% (second compound 0.0316 µM, first compound 0.0316 µM); 69.4% (second compound 0.0316 µM, first compound 0.1 µM); 71.5% (second compound 0.0316 µM, first compound 0.316 µM); 64.8% (second compound 0.0316 µM, first compound 1 µM); 61.6% (second compound 0.0316 µM, first compound 3.16 µM); 46.4% (second compound 0.0316 µM, first compound 10 µM). Further, the viability, T/C runs as follows: under setting [6], 68%; under setting [7], 62.4%; under setting [8], 65.9%; under setting [9], 54.1%; under setting [26], 55.6%; under setting [27], 40.5%. In addition, the viability, T/C under setting [10] was 58.4%; the viability, T/C under setting [11] is 58.7%; the viability, T/C under setting [12] was 55.6%; the viability, T/C under setting [13] was 58.4%; the viability, T/C under setting [28] was 50.6%; the viability, T/C under setting [29] is 48.1%. Moreover, the viability, T/C runs as follows: under setting [14], 55.8%; under setting [15], 49.5%; under setting [16], 56.1%; under setting [17], 47.8%; under setting [30], 46.7%; under setting [31], 40.9%.
On to `CNC(C)C(=O)NC1CN(S(=O)(=O)c2cccc(S(=O)(=O)N3CCC4CCC(C(=O)NC(c5ccccc5)c5ccccc5)N4C(=O)C(NC(=O)C(C)NC)C3)c2)CCC2CCC(C(=O)NC(c3ccccc3)c3ccccc3)N2C1=O` (stereo not given), for which the viability, T/C runs as follows: (compound 0.00316 µM) 94.8% and 99.9%; (compound 0.01 µM) 86.8% [middle of 15 runs]; (compound 0.0316 µM) 76.6% [middle of 15 runs]; (compound 0.1 µM) 64.3% [middle of 15 runs]; (compound 0.316 µM) 59.9% [middle of 15 runs]; (compound 1 µM) 55.5% [middle of 15 runs]. Besides, the concentration for half-maximal inhibition (IC50) runs as follows: (compound alone, run of 10/03/2022) more than 1000 nM; (curve of compound) > 1000 nM and 845 nM.

(Values after PubChem BioAssay AID1963429 (Molecular Pharmacology Branch, DTP, NCI, 2024).)
